Results published in ChEMBL document CHEMBL1201862, “PubChem BioAssay data set” (2004).
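Interpolation was linear, between the two tested concentrations surrounding the appropriate level; five concentrations were tested over 48 hours in 96-well plates. GI50 marks 50% less growth.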 The source made the active and inactive calls. Rule as the data show it: active = GI50 up to about 1.1 µM and inactive = higher.

Tests used:
Assay in all cases: NCI anticancer screen, dose series, 48 h
HT-29 = system: HT-29
SK-OV-3 = system: SK-OV-3
MDA-N = system: MDA-N
SK-MEL-2 = system: SK-MEL-2
Malme-3M = system: Malme-3M
DU-145 = system: DU-145
SNB-75 = system: SNB-75
KM12 = system: KM12
SK-MEL-28 = system: SK-MEL-28
U-251 = system: U-251
HL-60 = system: HL-60
NCI/ADR-RES = system: NCI/ADR-RES
MDA-MB-435 = system: MDA-MB-435
Hs-578T = system: Hs-578T
PC-3 = system: PC-3
RPMI-8226 = system: RPMI-8226
SF-539 = system: SF-539
HCC 2998 = system: HCC 2998
NCI-H226 = system: NCI-H226
A498 = system: A498

Measured: GI50

Cc1cn([C@@H]2O[C@H](CO)[C@@H](O)[C@@H]2O)c(=O)[nH]c1=O
inactive: HT-29 > 1000 µM | SK-OV-3 > 1000 µM | MDA-N > 1000 µM | SK-MEL-2 > 1000 µM | Malme-3M > 1000 µM | DU-145 > 1000 µM | SNB-75 > 1000 µM | KM12 > 1000 µM | SK-MEL-28 > 1000 µM | U-251 > 1000 µM | HL-60 > 1000 µM | NCI/ADR-RES > 1000 µM | MDA-MB-435 > 1000 µM | Hs-578T > 1000 µM | PC-3 > 1000 µM | RPMI-8226 > 1000 µM | SF-539 > 1000 µM | HCC 2998 > 1000 µM | NCI-H226 > 1000 µM | A498 > 1000 µM

CC(C)NC(=O)OCc1c(COC(=O)NC(C)C)c(-c2ccc[n+](COC(=O)C3CCCCC3)c2)n2c1CCC2
inactive: HT-29 90.6 µM | SK-OV-3 39.1 µM | MDA-N > 100 µM | SK-MEL-2 44.6 µM | Malme-3M 62.5 µM | DU-145 28.4 µM | SNB-75 46.8 µM | KM12 > 100 µM | SK-MEL-28 > 100 µM | U-251 55.6 µM | HL-60 > 100 µM | NCI/ADR-RES 60 µM | MDA-MB-435 > 100 µM | Hs-578T > 100 µM | PC-3 48.6 µM | RPMI-8226 > 100 µM | SF-539 35.8 µM | HCC 2998 > 100 µM | NCI-H226 > 100 µM | A498 29.2 µM
